Source: ChEMBL document CHEMBL1141262, “Cytotoxic diterpenoids from the hybrid soft coral Sinularia maxima x Sinularia polydactyla” (2007)

Tests used:
Assay type in all cases: functional
[1] = test system: DU-145; assay: Cytotoxicity against human DU145 cells after 72 hrs; details: for CC50: read-out: LC50 (the source's name)
[2] = test system: LNCaP; assay: Cytotoxicity against human LNcaP cells after 72 hrs; details: for CC50: read-out: LC50 (the source's name)
[3] = Cytotoxicity against human IGROV cells after 72 hrs; details: for CC50: read-out: LC50 (the source's name)
[4] = Cytotoxicity against ET-743 resistant human IGROV cells after 72 hrs
[5] = test system: SK-BR-3; assay: Cytotoxicity against human SK-BR3 cells after 72 hrs; details: for CC50: read-out: LC50 (the source's name)
[6] = test system: A549; assay: Cytotoxicity against human A549 cells after 72 hrs
[7] = test system: K562; assay: Cytotoxicity against human K562 cells after 72 hrs; details: for CC50: read-out: LC50 (the source's name)
[8] = test system: PANC-1; assay: Cytotoxicity against human PANC1 cells after 72 hrs; details: for CC50: read-out: LC50 (the source's name)
[9] = test system: HT-29; assay: Cytotoxicity against human HT29 cells after 72 hrs
[10] = test system: LoVo; assay: Cytotoxicity against human LoVo cells after 72 hrs; details: for CC50: read-out: LC50 (the source's name)
[11] = test system: LoVo; assay: Cytotoxicity against doxorubicin resistant human LoVo cells after 72 hrs
[12] = test system: HeLa; assay: Cytotoxicity against human HeLa cells after 72 hrs; details: for CC50: read-out: LC50 (the source's name)
[13] = test system: HeLa; assay: Cytotoxicity against aplidine resistant human HeLa cells after 72 hrs; details: for CC50: read-out: LC50 (the source's name)
[14] = test system: SK-MEL-28; assay: Cytotoxicity against human SK-MEL-28 cells after 72 hrs

SMILES: C=C(C)[C@H]1C/C2=C(\C(=O)OC)[C@@H]3O[C@@](C)(CC3=O)C[C@@H]3C=C(C(=O)O3)[C@H](C1)O2
- GI50 ([1]; Homo sapiens, DU-145, 72 h): 4.35 µM
- TGI ([1]; Homo sapiens, DU-145, 72 h): 8.32 µM
- CC50 ([1]; Homo sapiens, DU-145, 72 h): 15.9 µM
- GI50 [2]: 5.05 µM
- TGI [2]: 8.96 µM
- CC50 [2]: 15.9 µM
- GI50 ([3]; Homo sapiens, IGROV, 72 h): 4.05 µM
- TGI ([3]; Homo sapiens, IGROV, 72 h): 7.68 µM
- CC50 ([3]; Homo sapiens, IGROV, 72 h): 14.6 µM
- GI50 ([4]; Homo sapiens, IGROV, 72 h): 4.56 µM
- LC50 (50% lethal concentration) ([4]; Homo sapiens, IGROV, 72 h): 16.5 µM
- TGI ([4]; Homo sapiens, IGROV, 72 h): 8.68 µM
- GI50 ([5]; Homo sapiens, SK-BR-3, 72 h): 6.4 µM
- TGI ([5]; Homo sapiens, SK-BR-3, 72 h): 11.4 µM
- CC50 ([5]; Homo sapiens, SK-BR-3, 72 h): 20.3 µM
- GI50 ([6]; Homo sapiens, A549, 72 h): 5.56 µM
- LC50 ([6]; Homo sapiens, A549, 72 h): 25.6 µM
- TGI ([6]; Homo sapiens, A549, 72 h): 11.9 µM
- GI50 ([7]; Homo sapiens, K562, 72 h): 5.58 µM
- TGI ([7]; Homo sapiens, K562, 72 h): 8.89 µM
- CC50 ([7]; Homo sapiens, K562, 72 h): 14.2 µM
- GI50 ([8]; Homo sapiens, PANC-1, 72 h): 3.64 µM
- TGI ([8]; Homo sapiens, PANC-1, 72 h): 7.15 µM
- CC50 ([8]; Homo sapiens, PANC-1, 72 h): 14.1 µM
- GI50 ([9]; Homo sapiens, HT-29, 72 h): 6.48 µM
- LC50 (concentration killing 50% of cells) ([9]; Homo sapiens, HT-29, 72 h): > 25.6 µM
- TGI ([9]; Homo sapiens, HT-29, 72 h): 15.4 µM
- GI50 ([10]; Homo sapiens, LoVo, 72 h): 3.41 µM
- TGI ([10]; Homo sapiens, LoVo, 72 h): 6.61 µM
- CC50 ([10]; Homo sapiens, LoVo, 72 h): 12.8 µM
- GI50 ([11]; Homo sapiens, LoVo, 72 h): 5.66 µM
- LC50 ([11]; Homo sapiens, LoVo, 72 h): > 25.6 µM
- TGI ([11]; Homo sapiens, LoVo, 72 h): 16.5 µM
- GI50 ([12]; Homo sapiens, HeLa, 72 h): 4.38 µM
- TGI ([12]; Homo sapiens, HeLa, 72 h): 8.04 µM
- CC50 ([12]; Homo sapiens, HeLa, 72 h): 14.8 µM
- GI50 ([13]; Homo sapiens, HeLa, 72 h): 3.77 µM
- TGI ([13]; Homo sapiens, HeLa, 72 h): 7.5 µM
- CC50 ([13]; Homo sapiens, HeLa, 72 h): 15 µM
- GI50 ([14]; Homo sapiens, SK-MEL-28, 72 h): 4.25 µM
- LC50 ([14]; Homo sapiens, SK-MEL-28, 72 h): 13.6 µM
- TGI ([14]; Homo sapiens, SK-MEL-28, 72 h): 7.61 µM

SMILES: C=C(C)[C@H]1C/C2=C(\C(=O)OC)C(OC(C)CC)C(=O)/C=C(\C)C[C@@H]3C=C(C(=O)O3)[C@H](C1)O2 (stereo in doubt; 2)
- GI50 [1]: 3.98 µM
- TGI [1]: 7.56 µM
- CC50 [1]: 14.4 µM
- GI50 [3]: 3.4 µM
- TGI [3]: 6.91 µM
- CC50 [3]: 14.1 µM
- GI50 [4]: 3.96 µM
- LC50 (50% lethal concentration) [4]: 15.8 µM
- TGI [4]: 7.92 µM
- GI50 [5]: 0.58 µM
- TGI [5]: 1.43 µM
- GI50 [6]: 5.85 µM
- LC50 [6]: > 22.5 µM
- TGI [6]: 12.3 µM
- GI50 [7]: 5.26 µM
- TGI [7]: 9.45 µM
- CC50 [7]: 17 µM
- GI50 [8]: 2.9 µM
- TGI [8]: 6.91 µM
- CC50 [8]: 16.5 µM
- GI50 [9]: 4.93 µM
- LC50 (concentration killing 50% of cells) [9]: 18.5 µM
- TGI [9]: 9.54 µM
- GI50 [10]: 3.46 µM
- TGI [10]: 7.49 µM
- CC50 [10]: 16.2 µM
- GI50 [11]: 1.87 µM
- LC50 [11]: 11.9 µM
- TGI [11]: 4.95 µM
- GI50 [12]: 3.33 µM
- TGI [12]: 7.29 µM
- CC50 [12]: 16 µM
- GI50 [13]: 3.17 µM
- TGI [13]: 8.5 µM
- CC50 [13]: 22.5 µM
- GI50 [14]: 3.13 µM
- LC50 [14]: 13.5 µM
- TGI [14]: 6.5 µM

SMILES: C=C(C)[C@H]1C/C2=C(\C(=O)OC)C(OC(C)CC)C(=O)/C=C(\C)C[C@@H]3C=C(C(=O)O3)[C@H](C1)O2 (stereo in doubt; 3)
- GI50 [1]: 1.95 µM
- TGI ([1]; Homo sapiens, DU-145, 72 h): 5.31 µM
- CC50 ([1]; Homo sapiens, DU-145, 72 h): 13.5 µM
- GI50 [2]: 1.69 µM
- TGI [2]: 5.17 µM
- CC50 [2]: 14.3 µM
- GI50 [3]: 0.52 µM
- TGI [3]: 1.1 µM
- CC50 [3]: 3.3 µM
- GI50 [4]: 1.03 µM
- TGI [4]: 3.64 µM
- LC50 (50% lethal concentration) ([4]; Homo sapiens, IGROV, 72 h): 20.4 µM
- GI50 [5]: 0.039 µM
- TGI [5]: 0.28 µM
- CC50 ([5]; Homo sapiens, SK-BR-3, 72 h): > 22.5 µM
- GI50 [6]: 1.32 µM
- TGI [6]: 4.59 µM
- LC50 ([6]; Homo sapiens, A549, 72 h): 16.3 µM
- GI50 [7]: 1.21 µM
- TGI [7]: 2.47 µM
- CC50 ([7]; Homo sapiens, K562, 72 h): 10.6 µM
- GI50 [8]: 0.58 µM
- TGI [8]: 1.57 µM
- CC50 [8]: 7.4 µM
- GI50 [9]: 1.47 µM
- TGI [9]: 4.14 µM
- LC50 (concentration killing 50% of cells) ([9]; Homo sapiens, HT-29, 72 h): 11.1 µM
- GI50 [10]: 0.51 µM
- TGI [10]: 1.16 µM
- CC50 [10]: 3.8 µM
- GI50 [11]: 0.75 µM
- LC50 ([11]; Homo sapiens, LoVo, 72 h): 13.8 µM
- TGI ([11]; Homo sapiens, LoVo, 72 h): 2.72 µM
- GI50 [12]: 0.48 µM
- TGI [12]: 0.93 µM
- CC50 [12]: 1.8 µM
- GI50 [13]: 0.56 µM
- TGI [13]: 1.31 µM
- CC50 [13]: 5.26 µM
- GI50 [14]: 0.54 µM
- LC50 [14]: 2.13 µM
- TGI [14]: 1.08 µM
